Data reported in patent publication US12458609B2 (The General Hospital Corporation, priority 2018, dated 2025).

Columns and labels:
[1] = in humans; cited from earlier work
rats sedated with DEX [2] = experiment: Recovery of consciousness (righting reflex) in rats sedated with DEX; assay type: in vivo; settings: 8 rats, crossover; DEX 50 micrograms/kg IV over 10 min; 5 min later dextroamphetamine 3 mg/kg IV over 2 min; saline mean 92 minutes; p<0.01
Source text: A randomized, blinded, crossover design was used with 8 rats. […] This difference was statistically significant (p<0.01).

rats sedated with DEX [3] = experiment: LFP spectrogram and electromyogram analysis in rats sedated with DEX; assay type: in vivo; settings: infusion after DEX infusion; FIG. 3 bottom panel
Source text: Spectrograms were constructed from continuous LFP recordings from the prefrontal cortex of rats. In these figures, spectral power (dB) at a given frequency (Hz) is represented by color and plotted over time.

[4] = system: rats anesthetized with ketamine; experiment: Recovery of consciousness after ketamine anesthesia in rats; assay type: in vivo; settings: 8 rats, crossover; ketamine 50 mg/kg IV over 10 min; 5 min later dextroamphetamine 3 mg/kg IV over 2 min; saline mean 6.3 minutes; p<0.05
Description: A randomized, blinded, crossover design was used with 8 rats. After intravenous administration of ketamine (50 mg/kg IV) over 10 minutes, all rats became unconscious. […] The difference was statistically significant (p<0.05).

rat sedated with DEX = experiment: Quadrant crossings in the cage after dexmedetomidine sedation (single rat); assay type: in vivo
Description: The data provided is from a single rat that underwent 3 experiments, with 3-4 days of rest between each session. FIG. 5 is a schematic of the experimental Design.
The rat received an intravenous infusion of dexmedetomidine (DEX, 50 mcg/kg) over 10 minutes, followed by a 5-minute rest period to switch medications. […] Note that 7.4 mg/kg of LDX is enzymatically cleaved to slowly release a total of 2.2 mg/kg of d-AMPH.
The cage was divided into 4 quadrants, and the number of times the rat crossed from one quadrant to another was recorded. Each data point represents the number of quadrant crossings in the cage during the preceding 15 minutes. […] By adjusting the relative doses of d-AMPH and LDX, a combination of these two drugs provided continuous, long-lasting reversal of DEX sedation, without the adverse side effects of administering a larger dose of d-AMPH, e.g., hyperactivity and large increases in heart rate and blood pressure.

[5] = system: rats under propofol and sevoflurane anesthesia; settings: Kenny et al., PLoS ONE 2015; cited from earlier work

Compound | half-life [1] | mean time to regain consciousness (rats sedated with DEX [2]) [min] | low-frequency LFP power, consciousness and EMG activity (rats sedated with DEX [3]) | mean time to recovery of consciousness after ketamine [4] [min] | reversal of DEX sedation (movement, quadrant crossings) (rat sedated with DEX; DEX 50 mcg/kg IV over 10 min, d-AMPH 0.8 mg/kg alone, 2-minute IV infusion, FIG. 6) | time after which re-sedation occurred (rat sedated with DEX; DEX 50 mcg/kg IV, d-AMPH 0.8 mg/kg IV alone) [min] | reversal of general anesthesia [5]
Cc1cccc([C@H](C)c2cnc[nH]2)c1C [DEX, Dexmedetomidine] | approximately 2 hours | – | – | – | – | – | –
C[C@H](N)Cc1ccccc1 [dextroamphetamine] | – | 1.7 | rapidly decreased low-frequency LFP power, which coincided with return of consciousness (ROC) and increased EMG activity | 11.6 | initially woke up and moved around | 30 | reverse propofol and sevoflurane anesthesia
